# In patent publication US20090042904A1 (LABORATORIOS DEL DR. ESTEVE S.A., priority 2004, published 2009):
# Target: T1, 5HT6-human recombinant receptor (Homo sapiens, UniProt P50406)
# T1 construct: purchased Receptor Biology; host or cells: HEK-293 cells (membranes)
# Assay: Binding to serotonin receptor 5-HT6 ([3H]-LSD displacement)
# Conditions: membranes of HEK-293 cells expressing the receptor; radioligand [3H]-LSD 2.7 nM; 60 minutes at 37° C.
# Method: I) Binding to Serotonin Receptor 5-HT6
# Cell membranes of HEK-293 cells expressing the 5HT6-human recombinant receptor were supplied by Receptor Biology. In said membranes the receptor concentration is 2.18 pmol/mg protein and the protein concentration is 9.17 mg/ml. The experimental protocol follows the method of B. L. Roth et al. [B. L. Roth, S. C. Craigo, M. S. Choudhary, A. Uluer, F. J. Monsma, Y. Shen, H. Y. Meltzer, D. R. Sibley: Binding of Typical and Atypical Antipsychotic Agents to 5-Hydroxytryptamine-6 and Hydroxytryptamine-7 Receptors. The Journal of Pharmacology and Experimental Therapeutics, 1994, 268, 1403] with the following slight changes. The respective part of the literature description is hereby incorporated by reference and forms part of the disclosure.
# The commercial membrane is diluted (1:40 dilution) with the binding buffer: 50 mM Tris-HCl, 10 mM MgCl2,0.5 mM EDTA (pH 7.4). The radioligand used is [^3H]-LSD at a concentration of 2.7 nM with a final volume of 200 μl. Incubation is initiated by adding 100 μl of membrane suspension, (≈22.9 μg membrane protein), and is prolonged for 60 minutes at a temperature of 37° C. The incubation is ended by fast filtration in a Brandel Cell Harvester through fiber glass filters made by Schleicher & Schuell GF 3362 pretreated with a solution of polyethylenimine at 0.5%. The filters are washed three times with three milliliters of buffer Tris-HCl 50 mM pH 7.4. The filters are transferred to flasks and 5 ml of Ecoscint H liquid scintillation cocktail are added to each flask. The flasks are allowed to reach equilibrium for several hours before counting with a Wallac Winspectral 1414 scintillation counter. Non-specific binding is determined in the presence of 100 μM of serotonin. Tests were made in triplicate. The inhibition constants (Ki, nM) were calculated by non-linear regression analysis using the program EBDA/LIGAND described in Munson and Rodbard, Analytical Biochemistry, 1980, 107, 220, the respective part of which is hereby incorporated by reference and forms part of the disclosure.
# The binding of the substituted phenyl-piperazine compounds to the 5-HT6 receptor was determined as described above.
# T1 sequence (P50406 whole entry): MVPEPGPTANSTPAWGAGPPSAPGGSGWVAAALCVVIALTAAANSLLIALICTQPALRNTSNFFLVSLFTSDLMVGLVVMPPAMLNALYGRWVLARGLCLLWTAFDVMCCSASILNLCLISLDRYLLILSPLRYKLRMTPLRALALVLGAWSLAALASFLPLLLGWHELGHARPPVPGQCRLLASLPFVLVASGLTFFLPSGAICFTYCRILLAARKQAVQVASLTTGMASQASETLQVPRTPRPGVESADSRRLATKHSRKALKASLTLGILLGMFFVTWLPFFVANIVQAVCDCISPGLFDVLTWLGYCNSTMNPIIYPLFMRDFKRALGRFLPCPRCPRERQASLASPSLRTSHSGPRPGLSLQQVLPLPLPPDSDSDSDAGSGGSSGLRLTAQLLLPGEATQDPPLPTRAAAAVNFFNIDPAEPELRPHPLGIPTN
row,SMILES,Ki
1,"CN1CCN(c2ccc(C#N)c(NCc3ccccc3)c2)CC1 [Example 5, 2-Benzylamino-4-(4-methyl-piperazin-1-yl)-benzonitrile]",108 nM
2,"COC(=O)c1ccc(N2CCN(C)CC2)cc1NCCc1ccccc1 [Example 6, 4-(4-Methyl-piperazin-1-yl)-2-phenethylamino-benzoic acid methyl ester]",462 nM
3,"CN1CCN(c2ccc(OCc3ccccc3)c(NCCc3ccccc3)c2)CC1 [Example 9, [2-Benzyloxy-5-(4-methyl-piperazin-1-yl)-phenyl]-phenethyl-amine]",1280 nM
4,CN1CCN(c2ccc(OCc3ccccc3)c(NCc3ccco3)c2)CC1 [Example 10],402 nM
5,"COc1ccc(N2CCN(C)CC2)cc1NCc1ccccc1 [Example 11, Benzyl-[2-methoxy-5-(4-methyl-piperazin-1-yl)-phenyl]-amine]",409 nM
6,"CC(=O)N(Cc1ccccc1)c1ccc(N2CCN(C)CC2)cc1N [Example 23, N-[2-Amino-4-(4-methyl-piperazin-1-yl)-phenyl]-N-benzyl-acetamide]",164 nM
7,"CN1CCN(c2ccc(NS(=O)(=O)c3ccccc3)c(NCc3ccccc3)c2)CC1 [Example 24, N-[2-Benzylamino-4-(4-methyl-piperazin-1-yl)-phenyl]-benzenesulfonamide]",60.2 nM
